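Cells were grown in 96-well plates and exposed to each compound for 48 hours at five concentrations; endpoints were interpolated linearly between bracketing concentrations, or set to the highest concentration if not reached. TGI is the concentration that stops growth completely.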 Where a SMILES comes first, the peptide text is derived from it. The star is where a group is joined. Boc = CC(C)(C)OC(=O)*

In one assay the test system is NCI-H522 lung. Briefly: NCI anticancer screen, dose series, 48 h.
Consider `O=C1NC(=O)C2C(=O)NC(=O)C1C2c1c(Cl)cccc1Cl` (stereo unspecified), for which the TGI was > 100 µM.
On to `O=C1OC(Cc2ccccc2)(N2CCCC2=O)C1c1ccccc1` (stereo unspecified), for which the TGI was > 100 µM.
`CC(=O)C(CN(CC(C)C)CC(C)C)C(c1ccccc1)c1c(O)c2ccccc2oc1=O` (stereo unspecified): the TGI is > 100 µM.

A further assay deals with EKVX NSCLC. Briefly: NCI anticancer screen, dose series, 48 h.
As for `COc1ccc2c(c1)C(=O)C1CC(=O)CCC21` (stereo unspecified), the TGI was > 100 µM.
In the case of `Clc1ccc(Nc2nc3ccccc3nc2-c2cccs2)cc1Cl`, the TGI is > 100 µM.
Consider `CCn1c2ccccc2c2ccc3c(c21)C(=O)C=CC3=O`, for which the TGI turned out to be 30 µM.
`O=c1nc(NC2CCCCO2)ccn1CCO` (stereo unspecified): the TGI was > 100 µM.
`COC(=O)c1onc(-c2c(OC)cc(OC)cc2OC)c1C(=O)OC`: the TGI is > 100 µM.
Regarding `CCCP1(=O)C=C(C)C(=C(Cl)Cl)C(C)=C1` (stereo unspecified), the TGI was > 100 µM.
On the same count and under the same terms, then `CCCCCCCOc1ccc(/C=C\c2cc[n+](CCCCCCCC[n+]3ccc(/C=C\c4ccc(OCCCCCCC)cc4)cc3)cc2)cc1`, with > 100 µM.
Regarding `CC(C)(C)OC(=O)NC(Cc1ccc(O)cc1)C(=O)N1CCCC1C(=O)O` (stereo not drawn) (Boc-Tyr-Pro-OH; configuration not given here), the TGI is > 100 µM.
For `O=C(O)c1ccc(C2COc3ccc(Cl)cc3C2)cc1` (stereo unspecified), the TGI was > 100 µM.
In the case of `CC(=O)NC(CCCNC(=O)N(CCCl)N=O)C(=O)NCc1ccccc1` (stereo unspecified), the TGI is > 100 µM.
As for `COc1cccc(OC)c1C(=O)OCc1ccccc1`, the TGI was > 100 µM.
Same read-out and setting: the same measure for `Cc1ccc(/C=C/C(=O)C(C)(C)CN2CCCCC2)cc1`: 14.3 µM; for `CC(=O)CN(Cc1cc(C)c2c(c1)c1ccccc1n2Cc1ccccc1)S(=O)(=O)c1ccc(C)cc1`: > 100 µM; for `O=C1NC(=O)C2C(=O)NC(=O)C1C2c1c(Cl)cccc1Cl` (stereo unspecified): > 100 µM.
Turning to `O=C1OC(Cc2ccccc2)(N2CCCC2=O)C1c1ccccc1` (stereo unspecified), the TGI was > 100 µM.
As to `CC(=O)C(CN(CC(C)C)CC(C)C)C(c1ccccc1)c1c(O)c2ccccc2oc1=O` (stereo unspecified), the TGI is > 100 µM.

The subject of another assay is NCI-H226 lung. Briefly: NCI anticancer screen, dose series, 48 h.
In the case of `COc1ccc2c(c1)C(=O)C1CC(=O)CCC21` (stereo unspecified), the TGI is > 100 µM.
Consider `COc1cccc(NC(=O)CSc2nnc(-c3ccc(NC(C)=O)cc3)o2)c1`, for which the TGI was > 100 µM.
Regarding `Clc1ccc(Nc2nc3ccccc3nc2-c2cccs2)cc1Cl`, the TGI is > 100 µM.
Turning to `CCn1c2ccccc2c2ccc3c(c21)C(=O)C=CC3=O`, the TGI was found to be 32.8 µM.
Regarding `O=c1nc(NC2CCCCO2)ccn1CCO` (stereo unspecified), the TGI is > 100 µM.
With `COC(=O)c1onc(-c2c(OC)cc(OC)cc2OC)c1C(=O)OC`, the TGI was > 100 µM.
On the same count and under the same terms, then `CC(C)(C)OC(=O)NC(Cc1ccc(O)cc1)C(=O)N1CCCC1C(=O)O` (stereo not drawn) (Boc-Tyr-Pro-OH; configuration not given here), with > 100 µM; and `O=C(O)c1ccc(C2COc3ccc(Cl)cc3C2)cc1` (stereo unspecified), with > 100 µM.
As to `CC(=O)NC(CCCNC(=O)N(CCCl)N=O)C(=O)NCc1ccccc1` (stereo unspecified), the TGI was > 100 µM.
On to `c1ccc2c(c1)C1CCCCCC21N1CCOCC1` (stereo unspecified), for which the TGI is > 100 µM.
Take `COc1cccc(OC)c1C(=O)OCc1ccccc1`: the TGI was > 100 µM.
Turning to `O=C(CSc1nnc(Cc2ccccc2)o1)Nc1ccccc1`, the TGI is > 100 µM.
The compound `Cc1ccc(/C=C/C(=O)C(C)(C)CN2CCCCC2)cc1` yielded a TGI of 27.6 µM.
Take `CC(=O)CN(Cc1cc(C)c2c(c1)c1ccccc1n2Cc1ccccc1)S(=O)(=O)c1ccc(C)cc1`: the TGI was > 100 µM.
Same read-out and setting: then `O=C1NC(=O)C2C(=O)NC(=O)C1C2c1c(Cl)cccc1Cl` (stereo unspecified), with > 100 µM.
For the compound `O=C1OC(Cc2ccccc2)(N2CCCC2=O)C1c1ccccc1` (stereo unspecified), the TGI was > 100 µM.
In the case of `CC(=O)C(CN(CC(C)C)CC(C)C)C(c1ccccc1)c1c(O)c2ccccc2oc1=O` (stereo unspecified), the TGI was > 100 µM.

Another assay relates to NCI-H460 lung. Briefly: NCI anticancer screen, dose series, 48 h.
In the case of `COc1ccc2c(c1)C(=O)C1CC(=O)CCC21` (stereo unspecified), the TGI is > 100 µM.
For the compound `COc1cccc(NC(=O)CSc2nnc(-c3ccc(NC(C)=O)cc3)o2)c1`, the TGI was > 100 µM.
Take `Clc1ccc(Nc2nc3ccccc3nc2-c2cccs2)cc1Cl`: the TGI was > 100 µM.
`CCn1c2ccccc2c2ccc3c(c21)C(=O)C=CC3=O` registered a TGI of 45.5 µM.
On to `O=c1nc(NC2CCCCO2)ccn1CCO` (stereo unspecified), for which the TGI is > 100 µM.
With `COC(=O)c1onc(-c2c(OC)cc(OC)cc2OC)c1C(=O)OC`, the TGI was > 100 µM.
Same read-out and setting: then `CCCP1(=O)C=C(C)C(=C(Cl)Cl)C(C)=C1` (stereo unspecified), with > 100 µM.
Compound `CCCCCCCOc1ccc(/C=C\c2cc[n+](CCCCCCCC[n+]3ccc(/C=C\c4ccc(OCCCCCCC)cc4)cc3)cc2)cc1` yielded a TGI of 17 µM.
Take `CC(C)(C)OC(=O)NC(Cc1ccc(O)cc1)C(=O)N1CCCC1C(=O)O` (stereo not drawn) (Boc-Tyr-Pro-OH; configuration not given here): the TGI was > 100 µM.
On the same count and under the same terms, then `O=C(O)c1ccc(C2COc3ccc(Cl)cc3C2)cc1` (stereo unspecified), with > 100 µM.
As to `CC(=O)NC(CCCNC(=O)N(CCCl)N=O)C(=O)NCc1ccccc1` (stereo unspecified), the TGI is > 100 µM.
`c1ccc2c(c1)C1CCCCCC21N1CCOCC1` (stereo unspecified): the TGI is > 100 µM.
As to `COc1cccc(OC)c1C(=O)OCc1ccccc1`, the TGI is > 100 µM.
Turning to `O=C(CSc1nnc(Cc2ccccc2)o1)Nc1ccccc1`, the TGI was > 100 µM.
Compound `Cc1ccc(/C=C/C(=O)C(C)(C)CN2CCCCC2)cc1` gave a TGI of 23.5 µM.
